Article PMC9230797, “Integration of a Physiologically Based Pharmacokinetic and Pharmacodynamic Model for Tegoprazan and Its Metabolite: Application for Predicting Food Effect and Intragastric pH Alterations” (Pharmaceutics, 2022)
“And” between values parts separate entries of the source, which are not always exact repeats. Equal entries are not always repeated. Where two headings read alike, the source gives them in different places.

Tests used:
[1] = Caco-2 permeability assay; format: in vitro ADME; details: human
Protocol: (§1) Caco-2 cells were cultured in DMEM supplemented with 20% FBS, 1% non-essential amino acids, and 1% penicillin-streptomycin. Caco-2 cells were seeded onto collagen-coated 12-Transwell membranes at a density of 5 × 10^5 cells/mL and incubated under optimal conditions (maintained at 37 °C in a humidified atmosphere with 5% CO2/95% air) for 21 days. The culture medium was replaced every second day. For the experiments, after the growth medium was removed, the attached cells were washed with pre-warmed HBSS (pH 7.4) and pre-incubated with HBSS for 20 min at 37 °C. The integrity of the cell monolayers was evaluated before and after the permeability experiments by measuring transepithelial electrical resistance (TEER) values using an epithelial volt/ohm meter (World Precision Instruments, Sarasota, FL, USA). Caco-2 cells with TEER values higher than 300 Ω∙cm^2 were used for permeability experiments, and alterations in TEER values were less than 10% in all cases (i.e., 417.3 ± 6.3 Ω∙cm^2 and 400.8 ± 3.5 Ω∙cm^2, before and after the permeability experiments, respectively).
(§2) To determine the apical to basal (A to B) permeability of tegoprazan, 0.5 mL of HBSS containing 10 µM tegoprazan and 1.5 mL of fresh HBSS were added to the apical and basal side of the insert, respectively. The insert was transferred to a new well that contained 1.5 mL of fresh HBSS every 15 min, for 1 h. Aliquots (0.3 mL) on the basal side were transferred to fresh tubes and stored at −80 °C until further analysis. To investigate B-to-A permeability, 1.5 mL of HBSS containing 10 µM tegoprazan and 0.5 mL of fresh HBSS were added to the basal and apical sides of the insert, respectively. Aliquots (0.3 mL) on the apical side were transferred to fresh tubes, and 0.3 mL of pre-warmed fresh HBSS was replaced every 15 min for 1 h. The transport study was performed for 1 h based on the linearity of the cumulative transported tegoprazan amount versus transport time. The cumulative transported amount was calculated as the sum of transported amounts for 0–15 min, 15–30 min, 30–45 min, and 45–60 min, and the transport rate of tegoprazan was the slope of the regression line derived from the cumulative transported amount versus time plot. The apparent permeability (Papp) was calculated from the following Equation (2):(2) Papp(10^−6cm/s)=transport rate (nmol/min)/concentration (μM)× area(cm^2)×60 s
(§3) Caco-2 and rCYP samples were quantified using LC-MS/MS (UPLC® I-class coupled with TQ-MS (Waters, Milford, MA, USA). The mobile phase comprised (a) 0.1% formic acid and (b) acetonitrile containing 0.1% formic acid. Gradient elution at a flow rate of 0.3 mL/min was applied. Tegoprazan, M1, and the internal standard (tegoprazan-d6) were optimized in electrospray ionization positive mode. Acetonitrile with 0.1 μM of tegoprazan-d6 was added to the collected Caco-2 or rCYP samples. Then, processed samples were centrifuged at 13,000× g for 20 min. After centrifugation, 100 μL of supernatant was transferred to an LC-MS vial and analyzed using LC-MS/MS. The analytical method was validated based on the Bioanalytical Method Validation Guidance for Industry published by the US Food and Drug Administration and the Guideline on Bioanalytical Method Validation published by the Korean Ministry of Food and Drug Safety (MFDS). Linearity was in the range of 0.1–20 µM, and the inter-batch accuracy and precision were in the ranges of 91.8–101.3% and 2.3–8.9%, respectively. The stability of tegoprazan was evaluated, and it satisfied the acceptance criteria (coefficient of variances was within 15%) under variable conditions including reinjection, processed sample stability (PSS), and short-term stability for the stock and sample.

[2] = tested on: Caco-2 cells; test: Caco-2 permeability assay; format: in vitro ADME; details: pH 7.4/7.4, 10 µM; for Papp / Transport Rate: single replicates; for Recovery: single replicates A-C
Protocol: as §1, §2, §3

[3] = PBPK model input parameters predicted in SimCYP or obtained by parameter estimation; details: human; initial model value; Vd of the clinical study applied; read-out: Vss
Text: The tegoprazan and M1 PBPK models were developed using SimCYP® simulator, version 20 (Certara, Princeton, NJ, USA). Compound libraries were incorporated into an in vitro dataset, including the microsomal clearance of tegoprazan and M1. Observed PK parameters were obtained from the aforementioned clinical studies (Table 1 and Table 2).
The absorption of tegoprazan was applied to the advanced dissolution, absorption, and metabolism (ADAM) model, and the diffusion layer model (DLM) built into SimCYP® was applied to the considered formulation and pH-dependent solubility of tegoprazan. The permeability of tegoprazan was determined by a Caco-2 permeability assay and optimized by parameter estimation. Caco-2 permeability was optimized such that the predicted concentration–time profiles were fitted to clinical study data. The metabolite was generated by the metabolism of the parent drug; therefore, absorption was not considered.
The tissue distribution in the PBPK model was predicted by the distribution model (e.g., Rodger and Rowland method, Poulin and Theil method) and the tissue:plasma partition coefficient (Kp) scalar for specific organ or global values. Predicted systemic distribution was expressed as the volume of distribution in a steady state (Vss). […]

[4] = molecular target: porcine H^+/K^+-ATPase; details: experimental; read-out: half maximal inhibitory concentration (IC50); cited from earlier work
[5] = cited from earlier work
[6] = At 30 min after a high-fat meal, Observed (n = 12), single 50 mg, ref 34 (footnote; text: ref 16)

Cc1nc2cc(C(=O)N(C)C)cc(O[C@H]3CCOc4cc(F)cc(F)c43)c2[nH]1 [tegoprazan]
Papp at 1 h, 10 µM ([1]; Caco-2, pH 7.4, A to B, pH 7.4/7.4, 10 µM, read-out: Papp, Mean): 125 nm/s | recovery at 1 h, 10 µM ([1]; Caco-2, pH 7.4, A to B, pH 7.4/7.4, 10 µM, read-out: Recovery, Mean): 84.5% | recovery at 1 h, 10 µM ([1]; Caco-2, pH 7.4, A to B, pH 7.4/7.4, 10 µM, single replicates A-C, read-out: Recovery): 82.7% | Papp at 1 h, 10 µM ([1]; Caco-2, pH 7.4, A to B, pH 7.4/7.4, 10 µM, single replicates, read-out: Papp): 134 nm/s | Papp at 1 h, 10 µM ([1]; Caco-2, pH 7.4, B to A, pH 7.4/7.4, 10 µM, read-out: Papp, Mean): 117 nm/s | recovery at 1 h, 10 µM ([1]; Caco-2, pH 7.4, B to A, pH 7.4/7.4, 10 µM, read-out: Recovery, Mean): 84.3% | recovery at 1 h, 10 µM ([1]; Caco-2, pH 7.4, B to A, pH 7.4/7.4, 10 µM, single replicates A-C, read-out: Recovery): 85.9% | Papp at 1 h, 10 µM ([1]; Caco-2, pH 7.4, B to A, pH 7.4/7.4, 10 µM, single replicates, read-out: Papp): 114 nm/s | Papp at 1 h, 10 µM ([1]; Caco-2, pH 7.4, initial model value (experimental), read-out: Papp,caco-2): 125 nm/s | Papp ([2]; A to B): 110.1 nm/s and 132.3 nm/s | Transport Rate ([2]; A to B): 0.56 nmol/h and 0.48 nmol/h | Recovery ([2]; A to B): 86.4% | Papp ([2]; B to A): 103.6 nm/s and 133.6 nm/s | Transport Rate ([2]; B to A): 0.49 nmol/h and 0.46 nmol/h and 0.53 nmol/h | Recovery ([2]; B to A): 88.7% and 78.3% | Vd [3]: 1.55 L/kg | IC50 [4]: 0.53 µM | Tmax ([5]; At 30 min after a high-fat meal, Observed (n = 12), single 50 mg, median (min–max), ref 34 (footnote; text: ref 16)): 3.0 (0.5–8.0) h | AUC0–24 h [5, 6]: 3.017 ± 1.194 µg·h/mL | Cmax [5, 6]: 0.492 ± 0.2939 µg/mL | AUC0–24 h ([5]; Fast, Observed (n = 12), single 50 mg, mean ± SD, ref 34 (footnote; text: ref 16)): 2.837 ± 1.055 µg·h/mL | Cmax ([5]; Fast, Observed (n = 12), single 50 mg, ref 34 (footnote; text: ref 16)): 0.803 ± 0.1562 µg/mL | Cmax ([5]; administered at 30 min after high-fat meal, observed): 0.492 µg/mL | median Tmax ([5]; at 30 min before a high-fat meal, observed): 28.8 min | Cmax ([5]; fasting state, observed): 0.803 µg/mL | Cmax at 30 min after a high-fat meal compared with fasting state (decreased to) ([5]; observed): 38.7%
